Results reported in publication PMC7139549, “TLD1433 Photosensitizer Inhibits Conjunctival Melanoma Cells in Zebrafish Ectopic and Orthotopic Tumour Models” (Cancers, 2020).
Where two headings read alike, the source gives them in different places.

Tested on: CM2005.1 conjunctival melanoma cell line
Assay: SRB cell viability assay, CM2005.1
Type: cell-based, Human
Experimental: TLD1433 is known to generate reactive oxygen species (ROS) with high quantum efficacy in many cancer cell lines. However, there is no report of the in vitro toxicity of this compound in eye melanoma (UM) cell lines. We determined the cell viability of three conjunctival melanoma cell lines (CRMM1, CRMM2 and CM2005.1), and three uveal melanoma cell lines (OMM1, OMM2.5, MEL270) in the presence of TLD1433, both in the dark or under green light irradiation (21 mW/cm^2, 19 J/cm^2, 520 nm, 15 min), and compared this viability to epidermoid carcinoma A431 and cutaneous melanoma A375 cell lines under the same conditions. The protocol used was based on previous work from the Bonnet group, and differed slightly from recommendations from McFarland et al.. […] The effective concentration (EC50) values, i.e., the concentration required to reduce cell viability by 50% compared to untreated wells, were assessed by fitting the dose-response curves with a Hill equation. The phototoxicity index (PI), defined as the ratio of the dark EC50 to the light EC50, was also calculated and represents the amplification of TLD1433 activity with a light trigger. […]
Figure 2 Cell viability after TLD1433 treatment of eight tumour cell lines (CRMM1, CRMM2, CM2005.1, OMM1, OMM2.5, MEL270, A431, A375). […] The absorbance of Sulforhodamine B in solution was measured at 520 nm. […]
At day 0, cells were detached using 1mL of trypsin, resuspended in 4 mL of media and transferred to a 15 mL corning falcon tube. Cells were counted using trypan blue and BioRad® TC20™ automated cell counter (Figure 11). Dilutions of 6000 (CRMM1), 6000 (CRMM2), 8000 (CM2005.1), 6000 (OMM1), 6000 (OMM2.5), 6000 (MEL270) 8000 (A431), and 4000 (A375) cells/well were calculated from each cell suspension at a final volume of 6 mL using the following formula: Vc=(Vt×10C)/Lc where Vt = total volume of solution, C = number of cells per well/per 100 μL and Lc = live cells count (cells/mL). […] Next day, the dye was dissolved using Tri-base (0.25%) and absorbance of SRB at 510 nm was recorded from each well using a Tecan plate reader. […]

Structure (SMILES): Cc1ccnc(-c2cc(C)ccn2)c1.Cc1ccnc(-c2cc(C)ccn2)c1.[Cl-].[Cl-].[Ru+2].c1csc(-c2ccc(-c3ccc(-c4nc5c6cccnc6c6ncccc6c5[nH]4)s3)s2)c1 [TLD1433]
- EC50 (CM2005.1, dark, 24 h treatment, SRB, read-out: EC50, dark): 1100 nM
- EC50 (CM2005.1, green light 520 nm, 15 min, 21 mW/cm^2, 19 J.cm^−2, DLI 24 h, read-out: EC50,light): 5.8 nM
- PI (photo index) (CM2005.1, ratio of dark and light EC50, 19 J.cm^−2 green light): 190
